Here are results for 13 compounds from paper PMC6028098, “The N-terminal region of photocleavable peptides that bind HLA-DR1 determines the kinetics of fragment release” (PLoS ONE, 2018).

Where two headings read alike, the source gives them in different places. Ends that are not written are not given here. Peptide text beside a SMILES is read from it.

Series [1] concerns the target T1, HLA-DR1 (DRA*01:01/DRB1*01:01) (Homo sapiens, UniProt P01903+P01911, A100R/D57E/F55L/F60I/F76Y/I96L/L162R/M171V/P40L/Q125E/R42F/V115G/Y59C).
T1 construct: HLA-DR1 (DRA*01:01/DRB1*01:01) extracellular domain was expressed in Drosophila S2 cells; made in house
The series can be described thus: biochemical. The format is binding. As to conditions: for inhibition at 0.256 µM / inhibition at 1.28 µM / inhibition at 6.4 µM / inhibition at 32 µM / inhibition at 160 µM / inhibition at 0.000256 µM / inhibition at 0.00128 µM / inhibition at 0.0064 µM / inhibition at 0.032 µM / inhibition at 0.16 µM / inhibition at 0.8 µM / inhibition at 4 µM / inhibition at 20 µM: read-out: fraction of labeled HA binding inhibited.

For series [2] the following is noted: complex with DR2b, 2 minutes of UV exposure; cited from earlier work. The text has this:
In the only previous report in which a photocleavable peptide was used with a MHC-II protein, the complex studied was DR2b (HLA-DRB1*15:01) with a peptide derived from human myelin basic protein (MBP85-99) with the photocleavable group replacing the residue at P4 position (ENPVVHFXKNIVTPR). […] Thus in this case the peptide is cleaved efficiently and the ...

In series [3] the target is DR1 (Homo sapiens, UniProt P01903+P01911, A100R/D57E/F55L/F60I/F76Y/I96L/L162R/M171V/P40L/Q125E/R42F/V115G/Y59C). As to conditions: binding to DR1, estimated; cited from earlier work.
In series [4] the target is HLA-DR1 (DRA*01:01/DRB1*01:01) extracellular domain (human). The series is described as follows: fluorescence polarisation.

With `CC(=O)N[C@@H](Cc1ccc(O)cc1)C(=O)N[C@H](C(=O)N[C@@H](CCCCN)C(=O)NC(CC(=O)N[C@@H](CC(N)=O)C(=O)N[C@H](C(=O)N[C@@H](CC(C)C)C(=O)N[C@@H](CCCNC(=N)N)C(=O)N[C@@H](CC(C)C)C(=O)N[C@@H](C)C(=O)N[C@H](C(=O)O)[C@@H](C)O)[C@@H](C)O)c1ccccc1[N+](=O)[O-])C(C)C` (some centres unmarked) [Ac-photoHA-Δ1–2], in series [1] (72 h), the inhibition at 0.256 µM was -1.47%, the inhibition at 1.28 µM was -1.61%, the inhibition at 6.4 µM was -1.21% and the inhibition at 32 µM was determined as 3.82%. Further, the inhibition at 160 µM in series [1] (72 h) stood at 39.8%.
In the case of `CC(=O)N1CCC[C@H]1C(=O)N[C@@H](CCCNC(=N)N)C(=O)N[C@@H](Cc1ccc(O)cc1)C(=O)N[C@H](C(=O)N[C@@H](CCCCN)C(=O)NC(CC(=O)N[C@@H](CC(N)=O)C(=O)N[C@H](C(=O)N[C@@H](CC(C)C)C(=O)N[C@@H](CCCNC(=N)N)C(=O)N[C@@H](CC(C)C)C(=O)N[C@@H](C)C(=O)N[C@H](C(=O)O)[C@@H](C)O)[C@@H](C)O)c1ccccc1[N+](=O)[O-])C(C)C` (some centres unmarked) [Ac-photoHA], in series [1] (72 h), the inhibition at 0.256 µM was -1.71%, the inhibition at 1.28 µM is -3.02%, the inhibition at 6.4 µM is -0.583% and the inhibition at 32 µM worked out at 10%. For the same compound, the inhibition at 160 µM in series [1] (72 h) was determined as 59%. Further, the IC50 in series [1] (competition with 25 nM Alexa488-labeled HA for DR1 (100 nM per method, 150 nM per Fig 7/8 legends), 37°C, 72 h, fluorescence polarization, mean ± SD of two experiments, SD, read-out: IC50) is 134 ± 2 nM.
On to `CSCC[C@H](NC(=O)[C@H](CCC(N)=O)NC(=O)[C@H](CC(C)C)NC(=O)[C@H](Cc1c[nH]cn1)NC(C)=O)C(=O)NC(CC(=O)N[C@@H](CC(N)=O)C(=O)N[C@@H](C)C(=O)N[C@@H](CC(C)C)C(=O)N[C@@H](C)C(=O)N[C@@H](CC(C)C)C(=O)O)c1ccccc1[N+](=O)[O-]` (some centres unmarked) [Peptide L1MxN] (HELM PEPTIDE1{[ac].H.L.Q.M.[O=C(CC(N[*:1])c1ccccc1[N+](=O)[O-])[*:2]].N.A.L.A.L}$$$$V2.0), for which, in series [1] (72 h), the inhibition at 0.000256 µM was -0.215%, the inhibition at 0.00128 µM is -0.407%, the inhibition at 0.0064 µM was -1.67% and the inhibition at 0.032 µM was -1.44%. Further, in series [1] (72 h), the inhibition at 0.16 µM came out at 2.63%, the inhibition at 0.8 µM came to 13%, the inhibition at 4 µM was found to be 49.4% and the inhibition at 20 µM stood at 86.9%. Besides, the IC50 in series [1] (SD) was 4100 ± 298 nM.
Take `CSCC[C@H](NC(=O)[C@H](CCC(N)=O)NC(=O)[C@@H](NC(=O)[C@H](Cc1c[nH]cn1)NC(C)=O)C(C)C)C(=O)NC(CC(=O)N[C@@H](CC(N)=O)C(=O)N[C@@H](C)C(=O)N[C@@H](CC(C)C)C(=O)N[C@@H](C)C(=O)N[C@@H](CC(C)C)C(=O)O)c1ccccc1[N+](=O)[O-]` (some centres unmarked) [Peptide V1MxN] (HELM PEPTIDE1{[ac].H.V.Q.M.[O=C(CC(N[*:1])c1ccccc1[N+](=O)[O-])[*:2]].N.A.L.A.L}$$$$V2.0): in series [1] (72 h), the inhibition at 0.000256 µM was -0.0001%, the inhibition at 0.00128 µM stood at 3%, the inhibition at 0.0064 µM is 5.87% and the inhibition at 0.032 µM turned out to be 4.84%. Moreover, in series [1] (72 h), the inhibition at 0.16 µM worked out at 1.29%, the inhibition at 0.8 µM was found to be 10.9%, the inhibition at 4 µM is 34.5% and the inhibition at 20 µM is 92.8%. The same compound showed an IC50 in series [1] (SD) of 5400 ± 341 nM.
Take `CSCC[C@H](NC(=O)[C@H](CCC(N)=O)NC(=O)[C@H](Cc1ccc(O)cc1)NC(C)=O)C(=O)NC(CC(=O)N[C@@H](CC(N)=O)C(=O)N[C@@H](C)C(=O)N[C@@H](CC(C)C)C(=O)N[C@@H](C)C(=O)N[C@@H](CC(C)C)C(=O)O)c1ccccc1[N+](=O)[O-]` (some centres unmarked) [Peptide Y1MxN] (HELM PEPTIDE1{[ac].Y.Q.M.[O=C(CC(N[*:1])c1ccccc1[N+](=O)[O-])[*:2]].N.A.L.A.L}$$$$V2.0): in series [1] (72 h, Fig 2, [Pep] 0.000256 uM, 100 nM DR1, 25 nM Alexa488-labeled HA, 3 days, FP, mean of two experiments in triplicate), the inhibition at 0.000256 µM is -1.47%. Moreover, the inhibition at 0.00128 µM in series [1] (72 h, Fig 2, [Pep] 0.00128 uM, 100 nM DR1, 25 nM Alexa488-labeled HA, 3 days, FP, mean of two experiments in triplicate) was 4.96%. The inhibition at 0.0064 µM in series [1] (72 h, Fig 2, [Pep] 0.0064 uM, 100 nM DR1, 25 nM Alexa488-labeled HA, 3 days, FP, mean of two experiments in triplicate) is -1.42%. Besides, the inhibition at 0.032 µM in series [1] (72 h, Fig 2, [Pep] 0.032 uM, 100 nM DR1, 25 nM Alexa488-labeled HA, 3 days, FP, mean of two experiments in triplicate) came to 13.4%. The inhibition at 0.16 µM in series [1] (72 h, Fig 2, [Pep] 0.16 uM, 100 nM DR1, 25 nM Alexa488-labeled HA, 3 days, FP, mean, n = 3) came out at 39.7%. The inhibition at 0.8 µM in series [1] (72 h, Fig 2, [Pep] 0.8 uM, 100 nM DR1, 25 nM Alexa488-labeled HA, 3 days, FP, mean of two experiments in triplicate) worked out at 69.7%. Further, the inhibition at 4 µM in series [1] (72 h, Fig 2, [Pep] 4 uM, 100 nM DR1, 25 nM Alexa488-labeled HA, 3 days, FP, mean of two experiments in triplicate) was determined as 90%. Besides, in series [1] (72 h, Fig 2, [Pep] 20 uM, 100 nM DR1, 25 nM Alexa488-labeled HA, 3 days, FP, mean of two experiments in triplicate), the inhibition at 20 µM turned out to be 96.1%.
For `CC(C)C[C@H](NC(=O)[C@H](CCCNC(=N)N)NC(=O)[C@H](CC(C)C)NC(=O)[C@@H](NC(=O)[C@H](CC(N)=O)NC(=O)CC(NC(=O)[C@H](CCCCN)NC(=O)[C@@H](NC(=O)[C@@H](N)Cc1ccc(O)cc1)C(C)C)c1ccccc1[N+](=O)[O-])[C@@H](C)O)C(=O)N[C@@H](C)C(=O)N[C@H](C(=O)O)[C@@H](C)O` (some centres unmarked) [photoHA-Δ1–2], in series [1] (72 h), the inhibition at 0.256 µM is -1.94%, the inhibition at 1.28 µM is -1.83%, the inhibition at 6.4 µM was -1.22% and the inhibition at 32 µM is -0.549%. Further, the inhibition at 160 µM in series [1] (72 h) came to 9.88%.
For `CC(C)C[C@H](NC(=O)[C@H](CCCNC(=N)N)NC(=O)[C@H](CC(C)C)NC(=O)[C@@H](NC(=O)[C@H](CC(N)=O)NC(=O)CC(NC(=O)[C@H](CCCCN)NC(=O)[C@@H](NC(=O)[C@H](Cc1ccc(O)cc1)NC(=O)[C@H](CCCNC(=N)N)NC(=O)[C@@H]1CCCN1)C(C)C)c1ccccc1[N+](=O)[O-])[C@@H](C)O)C(=O)N[C@@H](C)C(=O)N[C@H](C(=O)O)[C@@H](C)O` (some centres unmarked) [photoHA], in series [1] (72 h), the inhibition at 0.256 µM is -1.65%, the inhibition at 1.28 µM was -2.9%, the inhibition at 6.4 µM is -1.3% and the inhibition at 32 µM is 22.2%. In addition, the inhibition at 160 µM in series [1] (72 h) came out at 66.3%. This compound also had an IC50 in series [1] (SD) of 92 ± 2 nM.
Consider “Ac-PRYVKQNTLRLAT [HA, reference compound]”, for which, in series [1] (72 h), the inhibition at 0.0064 µM stood at 7.96%, the inhibition at 0.032 µM amounted to 48.7%, the inhibition at 0.16 µM was determined as 70.6% and the inhibition at 0.256 µM is -1.7%. Besides, in series [1] (72 h), the inhibition at 0.8 µM is 95%, the inhibition at 1.28 µM was -1.55%, the inhibition at 4 µM was 99% and the inhibition at 6.4 µM is -0.259%. Moreover, in series [1] (72 h), the inhibition at 20 µM was found to be 104%, the inhibition at 32 µM was found to be 29.5% and the inhibition at 160 µM worked out at 76.5%. Moreover, the IC50 in series [1] (competition with 25 nM Alexa488-labeled HA for DR1 (100 nM per method, 150 nM per Fig 7/8 legends), 37°C, 72 h, fluorescence polarization, mean ± SD of two experiments, read-out: IC50) stood at 40 nM.
Turning to ENPVVHFXKNIVTPR, the “parent peptide after UV exposure” value in series [2] is “almost undetectable”.
Consider “HA306-318: immunodominant viral epitope from influenza virus hemagglutinin (Ac-PRYVKQNTLRLAT; not fully specified (residue 5); also: label on K5, type not given here)”, for which the Kd in series [3] was 13 nM.
In series [4], “L1MxN photocleavable peptide (Ac-HLQMxNALAL)” registered an IC50 of 4100 nM.
As for “V1MxN photocleavable peptide (Ac-HVQMxNALAL)”, the 50% inhibitory concentration (IC50) in series [4] worked out at 5400 nM.
On the same count and under the same terms, as for “Y1MxN photocleavable peptide (Ac-YQMxNALAL)”, the figure is 323 nM.

By IC50 is commonly meant the concentration that inhibits the measured activity by half. As a reminder, the Kd is the constant that tells how readily two partners part at equilibrium.
